# Test results: ChEMBL document CHEMBL5150075 (J Med Chem, 2022)
# Activity calls are given as the source filed them. No cut-off for these calls is given here.
# How the values were obtained:
# DU-145 [1] = test: Induction of G2/M phase cell cycle arrest in human DU-145 cells assessed as increase in cyclin B1 expression at 0.03 to 0.3 uM measured after 12 hrs by Western blot analysis; assay type: functional, cell-based; conditions: dose 0.03-0.3 µM
# A549 [2] = test: Antiproliferative activity against paclitaxel-resistant human A549 cells assessed as inhibition of cell growth incubated for 72 hrs by MTT assay; assay type: functional, cell-based; conditions: A549, 72 h
# [3] = Clearance in Kunming mouse at 2 mg/kg, iv by LC-MS/MS analysis; assay type: ADME, organism-based; conditions: in vivo
# [4] = Toxicity in BALB/c nude mouse xenografted with human DU-145 cells assessed as reduction in body weight at 5 mg/kg, po administered once daily and measured twice a week; assay type: organism-based; conditions: in vivo
# HUVEC = test: Anti-angiogenesis activity against HUVEC cells assessed as inhibition of cell growth incubated for 72 hrs by MTT assay; assay type: functional, cell-based; conditions: Homo sapiens
# BGC-823 = test: Antiproliferative activity against human BGC-823 cells assessed as inhibition of cell growth incubated for 72 hrs by MTT assay; assay type: functional, cell-based; conditions: BGC-823, 72 h
# Tubulin (Homo sapiens) [5] = biological target: T1, Tubulin (Homo sapiens) (UniProt P68371+Q9H4B7+P0DPH7+P68366+Q13509+Q71U36+P04350+Q3ZCM7+P07437+P68363+Q9BQE3+Q6PEY2+Q13885+Q9BVA1+Q9BUF5); test: Inhibition of tubulin polymerization in human DU-145 cells assessed as inhibition of tubulin assembly at 0.1 uM incubated for 16 hrs by Hoechst staining based confocal microscopy analysis; assay type: cell-based
# DU-145 [6] = test: Antiproliferative activity against human DU-145 cells assessed as inhibition of cell growth incubated for 72 hrs by MTT assay; assay type: functional, cell-based; conditions: DU-145, 72 h
# [7] = Oral bioavailability in Kunming mouse at 20 mg/kg by LC-MS/MS analysis; assay type: ADME, organism-based; conditions: in vivo
# [8] = biological target: Voltage-gated inwardly rectifying potassium channel KCNH2 (Homo sapiens, UniProt Q12809); test: Inhibition of hERG expressed in CHO cells by whole cell patch clamp method; assay type: toxicity, cell-based
# A549 [9] = test: cells; conditions: Homo sapiens, A549, 72 h
# DU-145 [10] = test: Induction of G2/M phase cell cycle arrest in human DU-145 cells assessed as increase in histone H3 phosphorylation at Ser10 residue at 0.03 to 0.3 uM measured after 12 hrs by Western blot analysis; assay type: functional, cell-based; conditions: dose 0.03-0.3 µM
# [11] = Toxicity in BALB/c nude mouse xenografted with human NCI-H1299 cells assessed as reduction in body weight at 10 to 20 mg/kg, po administered once daily and measured twice a week; assay type: organism-based; conditions: in vivo, dose 10-20 mg/kg
# [12] = Cytotoxicity against African green monkey Vero cells assessed as reduction in cell viability measured after 48 hrs; assay type: toxicity, cell-based, Chlorocebus sabaeus
# DU-145 [13] = test: Induction of apoptosis in human DU-145 cells assessed as live cells at 0.3 uM incubated for 48 hrs by Annexin V-FITC/PI staining based flow cytometry analysis (reference value: 94.94%); assay type: functional
# DU-145 [14] = test: Antiproliferative activity against human DU-145 cells assessed as inhibition of cell growth incubated for 48 hrs by real-time cell analysis; assay type: functional, cell-based; conditions: DU-145, 48 h
# MCF7R = test: Antiproliferative activity against paclitaxel-resistant human MCF7R cells assessed as inhibition of cell growth incubated for 72 hrs by MTT assay; assay type: functional, cell-based; conditions: read-out: IC50
# DU-145 [15] = test: Induction of apoptosis in human DU-145 cells assessed as live cells at 0.1 uM incubated for 48 hrs by Annexin V-FITC/PI staining based flow cytometry analysis (reference value: 94.94%); assay type: functional
# DU-145 [16] = test: Induction of apoptosis in human DU-145 cells assessed as dead cells at 0.1 uM incubated for 48 hrs by Annexin V-FITC/PI staining based flow cytometry analysis (reference value: 1.05%); assay type: functional
# [17] = biological target: Sodium channel protein type 5 subunit alpha (Homo sapiens, UniProt Q14524); test: Inhibition of human Nav1.5 expressed in CHO cells by manual patch clamp method; assay type: toxicity, cell-based
# [18] = Mutagenicity in Salmonella typhimurium TA-100 at 0.5 to 500 ug per plate incubated for 72 hrs in presence or absence of S9 fraction by Ames test; assay type: toxicity, Salmonella enterica subsp. enterica serovar Typhimurium; conditions: in vivo, dose 0.5-500 µg
# [19] = Mutagenicity in Salmonella typhimurium TA-98 at 0.5 to 500 ug per plate incubated for 72 hrs in presence or absence of S9 fraction by Ames test; assay type: toxicity, Salmonella enterica subsp. enterica serovar Typhimurium; conditions: in vivo, dose 0.5-500 µg
# DU-145 [20] = test: Induction of apoptosis in human DU-145 cells assessed as early apoptotic cells at 0.03 uM incubated for 48 hrs by Annexin V-FITC/PI staining based flow cytometry analysis (reference value: 1.97%); assay type: functional
# [21] = Mutagenicity in Salmonella typhimurium TA-97 at 0.5 to 500 ug per plate incubated for 72 hrs in presence or absence of S9 fraction by Ames test; assay type: toxicity, Salmonella enterica subsp. enterica serovar Typhimurium; conditions: in vivo, dose 0.5-500 µg
# DU-145 [22] = test: Induction of apoptosis in human DU-145 cells assessed as late apoptotic cells at 0.3 uM incubated for 48 hrs by Annexin V-FITC/PI staining based flow cytometry analysis (reference value: 2.05%); assay type: functional
# DU-145 [23] = test: Antiproliferative activity against human DU-145 cells assessed as inhibition of cell growth incubated for 72 hrs by real-time cell analysis; assay type: functional, cell-based; conditions: DU-145, 72 h
# HepG2 = test: cells; conditions: Homo sapiens, HepG2, 72 h
# NCI-H1299 [24] = test: Antiproliferative activity against human NCI-H1299 cells assessed as inhibition of cell growth incubated for 72 hrs by MTT assay; assay type: functional, cell-based; conditions: NCI-H1299, 72 h
# [25] = Stability in human liver microsomes assessed as half life incubated in presence of NADPH by LC-MS/MS analysis; assay type: ADME, Microsome
# [26] = Half life in Kunming mouse at 2 mg/kg, iv by LC-MS/MS analysis; assay type: ADME, organism-based; conditions: in vivo
# DU-145 [27] = test: Induction of apoptosis in human DU-145 cells assessed as increase in cleaved PARP level at 0.003 to 0.3 uM incubated for 48 hrs by Western blot analysis; assay type: functional, cell-based; conditions: dose 0.003-0.3 µM
# [28] = Toxicity in specific pathogen-free Kunming mouse assessed as pathological changes in liver at 10 mg/kg, po administered once daily and measured after 7 days by hematoxylin and eosin staining based analysis; assay type: organism-based; conditions: in vivo, 168 h, time 7 day
# DU-145 [29] = test: Induction of apoptosis in human DU-145 cells assessed as dead cells at 0.03 uM incubated for 48 hrs by Annexin V-FITC/PI staining based flow cytometry analysis (reference value: 1.05%); assay type: functional
# [30] = Toxicity in specific pathogen-free Kunming mouse assessed as pathological changes in colon tissues at 10 mg/kg, po administered once daily and measured after 7 days by hematoxylin and eosin staining based analysis; assay type: organism-based; conditions: in vivo, 168 h, time 7 day
# [31] = Stability in mouse liver microsomes assessed as half life incubated in presence of NADPH by LC-MS/MS analysis; assay type: ADME, Microsome
# Tubulin (Homo sapiens) [32] = biological target: T1, Tubulin (Homo sapiens); test: Disruption of microtubule network in human DU-145 cells assessed as reduction in acetyl-alpha tubulin expression by Western blot analysis; assay type: cell-based; conditions: dose 0.03-0.3 µM
# NCI-H1299 [33] = test: Antitumor activity against human NCI-H1299 cells xenografted in BALB/c nude mouse assessed as suppression of tumor growth at 10 mg/kg, po administered once daily and measured twice a week relative to control; assay type: functional
# MCF7 = test: cells; conditions: Homo sapiens, MCF7, 72 h
# Description: Antiproliferative activity against human MCF7 cells assessed as inhibition of cell growth incubated for 72 hrs by MTT assay
# Sequence of Sodium channel protein type 5 subunit alpha (Q14524 whole entry): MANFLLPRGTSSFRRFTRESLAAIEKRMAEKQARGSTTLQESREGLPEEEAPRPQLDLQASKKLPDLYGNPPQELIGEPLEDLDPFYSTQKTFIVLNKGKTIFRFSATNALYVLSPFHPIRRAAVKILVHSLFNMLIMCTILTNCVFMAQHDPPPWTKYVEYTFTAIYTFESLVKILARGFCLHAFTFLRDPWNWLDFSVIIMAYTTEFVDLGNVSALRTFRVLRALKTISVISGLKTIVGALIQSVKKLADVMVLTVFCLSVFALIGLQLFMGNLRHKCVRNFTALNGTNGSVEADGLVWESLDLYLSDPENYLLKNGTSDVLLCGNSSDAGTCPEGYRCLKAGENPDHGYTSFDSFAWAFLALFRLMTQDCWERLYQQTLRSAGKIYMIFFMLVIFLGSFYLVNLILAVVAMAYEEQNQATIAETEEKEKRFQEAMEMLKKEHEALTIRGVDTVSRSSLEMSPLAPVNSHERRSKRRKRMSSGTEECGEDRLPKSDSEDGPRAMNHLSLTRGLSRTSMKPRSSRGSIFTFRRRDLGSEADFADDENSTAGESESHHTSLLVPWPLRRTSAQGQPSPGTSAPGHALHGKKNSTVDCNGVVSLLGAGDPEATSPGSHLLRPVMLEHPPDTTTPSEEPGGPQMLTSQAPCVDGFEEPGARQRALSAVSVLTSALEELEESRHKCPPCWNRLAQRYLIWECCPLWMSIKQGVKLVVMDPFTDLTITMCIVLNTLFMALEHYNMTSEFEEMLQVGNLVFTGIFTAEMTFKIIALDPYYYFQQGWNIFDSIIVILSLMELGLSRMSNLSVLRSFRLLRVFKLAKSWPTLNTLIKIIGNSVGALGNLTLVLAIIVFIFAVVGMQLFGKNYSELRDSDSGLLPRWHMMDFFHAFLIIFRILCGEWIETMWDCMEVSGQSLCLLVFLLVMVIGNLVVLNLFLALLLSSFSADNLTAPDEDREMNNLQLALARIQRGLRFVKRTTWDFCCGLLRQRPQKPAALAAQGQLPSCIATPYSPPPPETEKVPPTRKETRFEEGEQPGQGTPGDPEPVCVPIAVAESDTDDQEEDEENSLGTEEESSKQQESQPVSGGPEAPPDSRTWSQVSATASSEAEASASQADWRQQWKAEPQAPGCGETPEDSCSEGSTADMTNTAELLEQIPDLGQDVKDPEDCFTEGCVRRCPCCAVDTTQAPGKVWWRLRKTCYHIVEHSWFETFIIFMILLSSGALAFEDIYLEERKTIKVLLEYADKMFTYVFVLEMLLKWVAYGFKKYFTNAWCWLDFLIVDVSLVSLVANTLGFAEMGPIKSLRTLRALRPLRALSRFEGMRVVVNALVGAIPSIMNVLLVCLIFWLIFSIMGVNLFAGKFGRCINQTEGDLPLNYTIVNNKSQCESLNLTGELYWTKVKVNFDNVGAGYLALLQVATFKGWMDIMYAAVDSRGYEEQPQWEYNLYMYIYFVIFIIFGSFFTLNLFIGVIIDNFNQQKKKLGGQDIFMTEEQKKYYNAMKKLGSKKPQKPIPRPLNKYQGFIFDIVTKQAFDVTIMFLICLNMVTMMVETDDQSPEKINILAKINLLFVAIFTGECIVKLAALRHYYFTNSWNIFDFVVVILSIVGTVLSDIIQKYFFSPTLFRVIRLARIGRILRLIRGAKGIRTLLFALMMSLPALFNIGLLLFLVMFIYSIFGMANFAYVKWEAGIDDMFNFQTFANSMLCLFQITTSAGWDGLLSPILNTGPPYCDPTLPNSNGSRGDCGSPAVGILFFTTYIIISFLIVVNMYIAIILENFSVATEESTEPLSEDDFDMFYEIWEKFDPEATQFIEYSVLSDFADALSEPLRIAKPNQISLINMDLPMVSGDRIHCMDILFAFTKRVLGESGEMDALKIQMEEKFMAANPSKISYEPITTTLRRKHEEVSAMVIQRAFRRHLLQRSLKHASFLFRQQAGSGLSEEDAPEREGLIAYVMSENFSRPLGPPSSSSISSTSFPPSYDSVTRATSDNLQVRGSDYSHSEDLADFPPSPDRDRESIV
# Sequence of Voltage-gated inwardly rectifying potassium channel KCNH2 (Q12809 whole entry): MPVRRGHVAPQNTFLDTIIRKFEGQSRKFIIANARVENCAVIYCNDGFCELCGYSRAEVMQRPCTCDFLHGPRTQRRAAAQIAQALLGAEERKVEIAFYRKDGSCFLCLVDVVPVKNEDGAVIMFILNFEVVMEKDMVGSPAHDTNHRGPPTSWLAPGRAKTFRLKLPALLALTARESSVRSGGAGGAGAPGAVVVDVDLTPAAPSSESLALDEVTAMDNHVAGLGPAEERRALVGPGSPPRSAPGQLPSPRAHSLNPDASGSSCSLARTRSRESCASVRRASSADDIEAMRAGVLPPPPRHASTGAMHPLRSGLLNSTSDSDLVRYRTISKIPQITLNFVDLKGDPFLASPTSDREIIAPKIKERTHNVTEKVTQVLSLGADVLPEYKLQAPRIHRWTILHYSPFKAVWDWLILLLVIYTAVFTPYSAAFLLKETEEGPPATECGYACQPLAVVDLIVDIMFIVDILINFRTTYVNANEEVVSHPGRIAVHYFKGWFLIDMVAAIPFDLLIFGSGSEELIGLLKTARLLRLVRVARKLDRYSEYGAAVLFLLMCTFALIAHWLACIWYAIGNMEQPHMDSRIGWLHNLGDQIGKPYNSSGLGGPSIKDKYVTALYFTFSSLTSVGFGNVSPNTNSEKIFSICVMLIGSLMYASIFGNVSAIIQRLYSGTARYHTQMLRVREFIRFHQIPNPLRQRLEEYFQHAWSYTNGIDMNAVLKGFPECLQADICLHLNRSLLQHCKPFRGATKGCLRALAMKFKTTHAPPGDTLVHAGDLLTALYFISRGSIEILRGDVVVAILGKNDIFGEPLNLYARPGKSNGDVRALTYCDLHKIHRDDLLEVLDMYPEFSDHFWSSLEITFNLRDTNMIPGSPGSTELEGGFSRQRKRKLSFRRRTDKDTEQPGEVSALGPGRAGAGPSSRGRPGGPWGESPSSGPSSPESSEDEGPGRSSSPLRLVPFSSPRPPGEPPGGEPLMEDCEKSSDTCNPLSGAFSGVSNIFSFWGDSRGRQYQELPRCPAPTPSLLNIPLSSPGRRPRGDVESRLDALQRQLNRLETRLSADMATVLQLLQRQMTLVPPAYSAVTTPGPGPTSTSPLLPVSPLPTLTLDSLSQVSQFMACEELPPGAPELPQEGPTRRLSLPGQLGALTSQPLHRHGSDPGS
structure (smiles),measurement,setting,value
Cc1ccc(S(=O)(=O)Nc2cc(C(=O)NCc3ccc(C)nc3)ccc2C)cc1,Activity,DU-145 [1],Active
same,IC50,A549 [2],30 nM
same,clearance,[3],61.5 mL/min/kg
same,Activity,[4],Non-Toxic
same,IC50,HUVEC,32 nM
same,IC50,BGC-823,21 nM
same,inhibition,Tubulin (Homo sapiens) [5],Active
same,IC50,DU-145 [6],8 nM
same,bioavailability,[7],48.2%
same,IC50,[8],> 10000 nM
same,IC50,A549 [9],25 nM
same,Activity,DU-145 [10],Active
same,Activity,[11],Toxic
same,IC50 at 48 h,[12],40 nM
same,Activity,DU-145 [13],37.88%
same,IC50,DU-145 [14],10 nM
same,IC50,MCF7R,14 nM
same,Activity,DU-145 [15],43.52%
same,Activity,DU-145 [16],5.08%
same,IC50,[17],> 30000 nM
same,Activity,[18],Non-Toxic
same,Activity,[19],Non-Toxic
same,Activity,DU-145 [20],13.66%
same,Activity,[21],Non-Toxic
same,Activity,DU-145 [22],30.32%
same,IC50,DU-145 [23],9 nM
same,IC50,HepG2,3 nM
same,IC50,NCI-H1299 [24],4 nM
same,half-life,[25],24 min
same,half-life,[26],10.8 min
same,Activity,DU-145 [27],Active
same,Activity,[28],Non-Toxic
same,Activity,DU-145 [29],2.95%
same,Activity,[30],Non-Toxic
same,half-life,[31],26 min
same,Activity,Tubulin (Homo sapiens) [32],Active
same,Activity,NCI-H1299 [33],48.8%
same,IC50,MCF7,6 nM
